Source: patent US20260234165A1, “MACROCYCLIC COMPOUNDS, PREPARATION METHOD THEREFOR, AND USE THEREOF” (GENFLEET THERAPEUTICS (SHANGHAI) INC., priority 2004, published 2026)
Like-named read-outs stand apart in the source and are kept apart here.

Tests used:
[1] = test system: NCI-H441 cells; test: 3D cell proliferation assay (CellTiter Glo-3D), NCI-H441; assay type: cell-based, human; details: medium with 2% FBS, read-out: H441 AP IC50
Summary of the method: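 Cells seeded at 800 per well in medium with 2% FBS, treated next day with 3.16-fold dilution series (0.1% DMSO) for 5 days at 37°C. Viability by CellTiter-Glo 3D luminescence; inhibition normalised to DMSO and cell-free controls, IC50 by four-parameter fit.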

[2] = Assay for stability in liver microsomes; assay type: in vitro ADME; details: human liver microsomes; for half-life at 1 µM: NADPH, 37° C., 0/30/60 min; for CLint scaled at 1 µM: liver intrinsic clearance rate
Description: This experiment was intended to investigate the metabolic stability of the test compounds in human liver microsomes. The materials used in the experiment included 10 mM solutions of the test compounds and the control sample, human liver microsomes, and reduced nicotinamide adenine dinucleotide phosphate (NADPH) powder. In the experiment, a 100 mM potassium phosphate buffer was used as the buffer system.
The liver microsome working solution was prepared by diluting the liver microsome stock solution to 0.75 mg/mL using the 100 mM potassium phosphate buffer. Then, 5 μL of the 10 mM stock solution of the test compound was taken, and 195 μL of methanol was added. The mixture was well mixed to prepare a working solution A with a concentration of 0.25 mM.
Subsequently, the working solution A was diluted to 1.5 μM using the liver microsome working solution to prepare a compound-liver microsome mixed solution. Additionally, NADPH powder was dissolved in a 100) mM potassium phosphate buffer to prepare a 6 mM NADPH solution. The compound-liver microsome mixed solution was dispensed into a 96-well plate at 30 μL/well, with labeled time points of 0 min, 30 min, and 60 min. For 0-min samples, 180 μL of acetonitrile containing 100 ng/mL tolbutamide and 15 μL of the NADPH solution were added directly. The 96-well plate and the NADPH solution were then preheated under a 37° C. water bath for 5 min. After the preheating, 15 μL of the NADPH solution was added to each of the 30-min and 60-min sample wells. The plate was gently shaken for mixing and then incubated under the 37° C. water bath for the corresponding time. After the incubation was completed. 180 μL of acetonitrile containing 100 ng/mL tolbutamide was added to each sample well. The plate was sealed with a sealing film, shaken for 10 min (800 rpm/min), and then centrifuged for 15 min (4000 rpm). After the centrifugation, 50 μL of the supernatant was taken and added to a 96-well plate containing 150 μL of deionized water, and then the plate was sealed and shaken for 10 min (800 rpm) for uniform mixing. Subsequently sample analysis was performed using liquid chromatography-tandem mass spectrometry (LC-MS/MS).
The elimination rate constant and clearance rate of the test compound in liver microsomes were calculated using the following formulas: Remaining rate (%)=(peak area ratio of the compound to internal standard at any time point/peak area ratio of the compound to internal standard at 0 min)×100%,^4. T1/2=0.693/ke, where ke is the elimination rate constant and T1/2 is the half-life. Liver microsome intrinsic clearance rate (CLint(mic))=0.693/(T1/2× microsome protein concentration (mg/mL)). Liver intrinsic clearance rate (CLint(liver))=CLint(mic)×microsome protein-to-liver weight ratio (mg/g)×liver-to-body weight ratio (g/kg). In the formulas, CLint(mic) is the liver microsome intrinsic clearance rate, CLint(liver) is the liver intrinsic clearance rate, and CL(liver) is the liver clearance rate. For humans, the microsome protein-to-liver weight ratio was 45 mg/g, and the liver-to-body weight ratio was 20.7 g/kg.

[3] = Homo sapiens, NCI-H441, 3D cell proliferation (CellTiter Glo-3D)
[4] = 3D cell proliferation (CellTiter Glo-3D)

Structure (SMILES) | IC50 [1, 3] | half-life at 1 µM [2] | CLint scaled at 1 µM [2] | IC50 [1, 4]
CCn1c(-c2cc(N3CCN4CC5(CC5)OC[C@@H]4C3)cnc2[C@H](C)OC)c2c3cc(ccc31)-c1csc(n1)C[C@H](NC(=O)[C@H]1[C@H](C)[C@@H]1C)C(=O)N1CCC[C@H](N1)C(=O)OCC1(CC1)C2 (atropisomer, axis not shown; (Ra)) [Compound Z13] | 1.2 nM | 36.7 min | 43.7 mL/min/kg | –
CO[C@@H](C)c1ncc(C#CCN2CCCOCC2)cc1-c1c2c3cc(ccc3n1CC(F)(F)F)-c1csc(n1)C[C@H](NC(=O)[C@H]1[C@H](C)[C@@H]1C)C(=O)N1CCC[C@H](N1)C(=O)OCC(C)(C)C2 (atropisomer, axis not shown; (Ra)) [Compound Z700, N-((6^3S,4S,Z)-1^1-(2,2,2-trifluoroethyl)-(Ra)-1^2-(2-((S)-1-methoxyethyl)-(5-(3-(1,4-oxazepan-4-yl)prop-1-yn-1-yl))-pyridin-3-yl)-10,10-dimethyl-5,7-dioxo-6^1,6^2,6^3,6^4,6^5,6^6-hexahydro-1^1H-8-oxa-2(4,2)-thiazola-1(5,3)-indola-6(1,3)-pyridazinacycloundecaphane-4-yl)-2,3-dimethylcyclopropane-1-carboxamide] | – | – | – | 0.17 nM
CCn1c(-c2cc(C#CCN3C4CCC3COC4)cnc2[C@H](C)OC)c2c3cc(ccc31)-c1csc(n1)C[C@H](NC(=O)[C@H]1[C@H](C)[C@@H]1C)C(=O)N1CCC[C@H](N1)C(=O)OCC(C)(C)C2 (atropisomer, axis not shown; (Ra)) [Compound Z711, (1r,2R,3S)—N-((6^3S,4S,Z)—(Ra)-1^2-(5-(3-(3-oxa-8-azabicyclo[3.2.1]octan-8-yl)prop-1-yn-1-yl)-2-((S)-1-methoxyethyl)pyridin-3-yl)-1^1-ethyl-10,10-dimethyl-5,7-dioxo-6^1,6^2,6^3,6^4,6^5,6^6-hexahydro-1^1H-8-oxa-2(4,2)-thiazola-1(5,3)-indola-6(1,3)-pyridazinacycloundecaphane-4-yl)-2,3-dimethylcyclopropane-1-carboxamide] | – | – | – | 0.27 nM
CCn1c(-c2cc(C#CCN3CCC(C(F)(F)F)CC3)cnc2[C@H](C)OC)c2c3cc(ccc31)-c1csc(n1)C[C@H](NC(=O)[C@H]1[C@H](C)[C@@H]1C)C(=O)N1CCC[C@H](N1)C(=O)OCC(C)(C)C2 (atropisomer, axis not shown; (Ra)) [Compound Z778] | 1.14 nM | 50.3 min | 31.9 mL/min/kg | –
CCn1c(-c2cc(C#CCN(C)CCOC)cnc2[C@H](C)OC)c2c3cc(ccc31)-c1csc(n1)C[C@H](NC(=O)[C@H]1[C@H](C)[C@@H]1C)C(=O)N1CCC[C@H](N1)C(=O)OCC(C)(C)C2 (atropisomer, axis not shown; (Ra)) [Compound Z788] | – | – | – | 0.28 nM
CCn1c(-c2cc(C#CCN3CCOC[C@H]3C)cnc2[C@H](C)OC)c2c3cc(ccc31)-c1csc(n1)C[C@H](NC(=O)[C@H]1[C@H](C)[C@@H]1C)C(=O)N1CCCC(N1)C(=O)OCC(C)(C)C2 (atropisomer, axis not shown; (Ra)) [Compound Z813] | – | – | – | 0.15 nM
CCn1c(-c2cc(C#CCN3CCCOCC3)cnc2[C@H](C)OC)c2c3cc(ccc31)-c1csc(n1)C[C@H](NC(=O)CC1CC1)C(=O)N1CCC[C@H](N1)C(=O)OCC(C)(C)C2 (atropisomer, axis not shown; (Ra)) [Compound Z915] | 1.04 nM | – | – | –
CCn1c(-c2cc(C#CCN3CCC3)cnc2[C@H](C)OC)c2c3cc(ccc31)-c1csc(n1)C[C@H](NC(=O)[C@H]1[C@H](C)[C@@H]1C)C(=O)N1CCC[C@H](N1)C(=O)OCC(C)(C)C2 (single isomer, unassigned) [Compound Z554] | 0.83 nM | – | – | –
CCn1c(-c2cc(C#CCN3CCCOCC3)cnc2[C@H](C)OC)c2c3cc(ccc31)-c1csc(n1)C[C@H](NC(=O)CC(C)C)C(=O)N1CCC[C@H](N1)C(=O)OCC(C)(C)C2 (single isomer, unassigned) [Compound Z803] | 0.61 nM | – | – | –

More lines, in order of falling IC50 [1, 3], values ahead:

IC50 [1, 3] | half-life at 1 µM [2] | CLint scaled at 1 µM [2] | IC50 [1, 4] | Structure (SMILES)
0.45 nM | – | – | – | CCn1c(-c2cc(C#CCN3CCCOCC3)cnc2[C@H](C)OC)c2c3cc(ccc31)-c1csc(n1)C[C@H](NC(=O)[C@H]1C[C@@H]1C)C(=O)N1CCC[C@H](N1)C(=O)OCC(C)(C)C2 (single isomer, unassigned) [Compound Z604]
0.31 nM | – | – | – | CCn1c(-c2cc(C#CCN3CCCOCC3)cnc2[C@H](C)OC)c2c3cc(ccc31)-c1csc(n1)C[C@H](NC(=O)[C@H]1[C@H](C)[C@@H]1C)C(=O)N1CCC[C@H](N1)C(=O)OCC(C)(C)C2 (single isomer, unassigned) [Compound Z504]
0.3 nM | – | – | – | CCn1c(-c2cc(C#C[C@@H]3COCCN3C)cnc2[C@H](C)OC)c2c3cc(ccc31)-c1csc(n1)C[C@H](NC(=O)[C@H]1[C@H](C)[C@@H]1C)C(=O)N1CCC[C@H](N1)C(=O)OCC(C)(C)C2 (atropisomer, axis not shown; (Ra)) [Compound Z672, (1r,2R,3S)—N-((6^3S,4S,Z)-1^1-ethyl-(Ra)-1^2-(2-((S)-1-methoxyethyl)-5-(((R)-4-methylmorpholin-3-yl)ethynyl)pyridin-3-yl)-10,10-dimethyl-5,7-dioxo-6^1,6^2,6^3,6^4,6^5,6^6hexahydro-1^1H-8-oxa-2(4,2)-thiazola-1(5,3)-indola-6(1,3)-pyridazinacycloundecaphane-4-yl)-2,3-dimethylcyclopropane-1-carboxamide]
0.26 nM | 98.7 min | 16.2 mL/min/kg | – | CCn1c(-c2cc(C#CCN3CCCN(C)CC3)cnc2[C@H](C)OC)c2c3cc(ccc31)-c1csc(n1)C[C@H](NC(=O)[C@H]1[C@H](C)[C@@H]1C)C(=O)N1CCC[C@H](N1)C(=O)OCC(C)(C)C2 (atropisomer, axis not shown; (Ra)) [Compound Z802, (1r,2R,3S)—N-((6^3S,4S,Z)-1^2-(5-(3-(4-methyl-1,4-diaza-1-yl)prop-1-yn-1-yl)-(Ra)-2-((S)-1-methoxyethyl)pyridin-3-yl)-1^1-ethyl-10,10-dimethyl-5,7-dioxo-6^1,6^2,6^3,6^4,6^5,6^6-hexahydro-1^1H-8-oxa-2(4,2)-thiazola-1(5,3)-indola-6(1,3)-pyridazinacycloundecaphane-4-yl)-2,3-dimethylcyclopropane-1-carboxamide]
0.14 nM | – | – | – | CCn1c(-c2cc(C#CCN3CCN(C)C(=O)C3)cnc2[C@H](C)OC)c2c3cc(ccc31)-c1csc(n1)C[C@H](NC(=O)[C@H]1[C@H](C)[C@@H]1C)C(=O)N1CCC[C@H](N1)C(=O)OCC(C)(C)C2 (atropisomer, axis not shown; (Ra)) [Compound Z793]
0.06 nM | 25 min | 64.2 mL/min/kg | – | CCn1c(-c2cc(C#CCN3CCS(=O)(=O)CC3)cnc2[C@H](C)OC)c2c3cc(ccc31)-c1csc(n1)C[C@H](NC(=O)[C@H]1[C@H](C)[C@@H]1C)C(=O)N1CCC[C@H](N1)C(=O)OCC(C)(C)C2 (atropisomer, axis not shown; (Ra)) [Compound Z838, (1r,2R,3S)—N-((6^3S,4S,Z)—(Ra)-1^2-(5-(3-(1,1-dioxidothiomorpholino)prop-1-yn-1-yl)-2-((S)-1-methoxyethyl)pyridin-3-yl)-1^1-ethyl-10,10-dimethyl-5,7-dioxo-6^1,6^2,6^3,6^4,6^5,6^6-hexahydro-1^1H-8-oxa-2(4,2)-thiazola-1(5,3)-indola-6(1,3)-pyridazinacycloundecaphane-4-yl)-2,3-dimethylcyclopropane-1-carboxamide]
